From patent US8889878B2, “Haloalky-substituted amides as insecticides and acaricides” (Bayer CropScience AG, priority 2009, dated 2014) come the findings set out here.

In series [1] the test system is Boophilus microplus. Put plainly: Boophilus microplus test (BOOPMI injection), Example 11. In kind it is in vivo. To be noted: application rate 20 μg/animal, injected into abdomen, after 7 days. A digest of the protocol: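 Efficacy rated from fertile egg laying: 100% means none of the ticks laid fertile eggs, read after 7 days. Compound, dissolved and diluted in DMSO, was delivered by abdominal injection, and ticks were kept in dishes under climate control.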

For series [2], the system named is Tick nymphs (Amblyomma hebraeum). Put plainly: Amblyomma hebaraeum test (AMBYHE), Example 9. In kind it is in vivo. Conditions: application rate 100 ppm, immersed one minute, after 42 days. How it is done:
Amblyomma hebaraeum Test (AMBYHE) • Solvent: dimethyl sulphoxide To prepare an appropriate active ingredient formulation, 10 mg of active ingredient are mixed with 0.5 ml of dimethyl sulphoxide, and the concentrate is diluted with water to the desired concentration. Tick nymphs (Amblyomma hebraeum) are placed into perforated plastic cups and immersed in the desired concentration for one minute. The ticks are transferred onto filter papers in a Petri dish and stored in a climate-controlled cabinet. After 42 days, the kill rate in % is determined. 100% means that all ticks were killed; 0% means that no ticks were killed.

The subject of series [3] is Boophilus microplus females of the SP-resistant Parkhurst strain. Put plainly: Boophilus microplus test (DIP), Example 10. In kind it is in vivo. To be noted: application rate 100 ppm, after 7 days. How it is done: Boophilus microplus Test (DIP)
Test animals: adult engorged Boophilus microplus females of the SP-resistant Parkhurst strain • Solvent: dimethyl sulphoxide
10 mg of active ingredient are dissolved in 0.5 ml of dimethyl sulphoxide. For the purpose of preparing a suitable formulation, the active ingredient solution is diluted with water to the concentration desired in each case.
This active ingredient formulation is pipetted into tubes. 8-10 ticks are transferred into a further tube with holes. The tube is immersed into the active ingredient formulation, and all ticks are completely wetted. After the liquid has run out, the ticks are transferred onto filter discs in plastic dishes and stored in a climate-controlled room. The efficacy is assessed after 7 days by the number of fertile eggs laid. Eggs whose fertility is not outwardly visible are stored in glass tubes in a climate-controlled cabinet until the larvae hatch. Efficacy of 100% means that none of the ticks has laid any fertile eggs.

Series [4] relates to Musca domestica adults. Put plainly: Musca domestica test (MUSCDO), Example 14. In kind it is in vivo. To be noted: application rate 100 ppm, treated sponge, after 2 days. A digest of the protocol: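 Compound dissolved in DMSO and diluted in water to the test concentration, then applied to a sponge in vessels holding adult flies. Percent kill scored after 2 days (100% = all flies dead).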

Series [5] in a line: logP by HPLC on reverse-phase column (EEC Directive 79/831 Annex V.A8). In kind it is physicochemical. To be noted: HPLC-MS. Here is the method:
The logP values reported in the above Tables and Preparation Examples were determined according to EEC Directive 79/831 Annex V.A8 by HPLC (High Performance Liquid Chromatography) on a reverse-phase column (C18). Temperature 43° C.

The test system of series [6] is green peach aphid (Myzus persicae). Description: Myzus test (MYZUPE spray treatment), Example 17. The class given is in vivo. To be noted: application rate 100 g/ha, china cabbage leaf discs sprayed, after 6 days. A digest of the protocol:
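Efficacy recorded at 6 days as % kill, where 100% means every aphid dead and 0% none. Spray applied to Brassica pekinensis leaf discs bearing mixed-stage aphids; active ingredient dissolved in acetone with dimethylformamide and emulsifier, then diluted with emulsifier-containing water.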

Series [7] has as its system armyworm (Spodoptera frugiperda). Description: Spodoptera frugiperda test (SPODFR spray treatment), Example 15. In kind it is in vivo. To be noted: application rate 100 g/ha, maize leaf discs sprayed, after 7 days. Put shortly:
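Caterpillars placed on dried, sprayed Zea mays leaf discs; formulation of acetone, dimethylformamide and emulsifier diluted with emulsifier-containing water to test concentration. Percent kill scored on day 7.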

For series [8], the system named is Boophilus microplus. Put plainly: Boophilus microplus test (BOOPMI injection), Example 1. The class given is in vivo. Conditions: application rate 20 μg/animal, injected into abdomen, after 7 days. Put shortly: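 Compound in DMSO, diluted with water, injected into the abdomen of engorged ticks, which were then held in a climate-controlled room. Efficacy was scored after 7 days from fertile egg laying, with 100% meaning no tick laid fertile eggs.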

In the next series the test system is Ctenocephalides felis. Description: Ctenocephalides felis oral (CTECFE), Example 2. In kind it is in vivo. Conditions: application rate 20 ppm in citrated cow's blood, after 2 days. Put shortly: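 Compound in DMSO diluted into citrated cow's blood, offered to 20 unfed adult C. felis through a Parafilm membrane. Kill rate (%) scored after 2 days; 100% means all fleas dead.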

In the next series the test system is Lucilia cuprina larvae. Description: Lucilia cuprina test (LUCICU), Example 3. The class given is in vivo. Conditions: application rate 20 ppm, treated horsemeat, after 2 days. Put shortly:
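Horsemeat treated with a water dilution of a DMSO formulation of active ingredient was populated with Lucilia cuprina larvae. Kill rate in % read after 2 days; 100% means all larvae killed, 0% none.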

The subject of series [9] is Musca domestica adults. Description: Musca domestica test (MUSCDO), Example 4. To be noted: application rate 20 ppm, treated sponge, after 2 days. In kind it is in vivo. How it is done: Musca domestica Test (MUSCDO) • Solvent: dimethyl sulphoxide To prepare an active ingredient formulation, 10 mg of active ingredient are mixed with 0.5 ml of dimethyl sulphoxide, and the concentrate is diluted with water to the desired concentration. Vessels containing a sponge which has been treated with the active ingredient formulation of the desired concentration are populated with Musca domestica adults. After 2 days, the kill rate in % is determined. 100% means that all flies were killed; 0% means that no flies were killed.

Regarding `C#CC(C)NC(=O)c1ccc(/C=C/C(=O)NC(c2cccc(C(F)(F)F)c2)C(F)(F)F)cc1Cl` (centres unmarked) [Ia-161], the results for the “efficacy in % (fertile eggs laid)” value (in the series with Boophilus microplus [1]; in [3]) were 100% and 98%, respectively. For the same compound, the “kill rate in % (efficacy)” value in series [2] stood at 100%; in the series on Musca domestica adults [4], 80%. In addition, in series [5], the logP result is “HPLC-MS: logP = 3.43; mass”. The efficacy in % in [6] is 90%; in [7], 100%.
In the case of `CC(NC(=O)c1ccc(/C=C/C(=O)NC(c2cccc(C(F)(F)F)c2)C(F)(F)F)cc1C(F)(F)F)C(F)(F)F` (centres unmarked) [Ia-30], the “efficacy in % (fertile eggs laid)” value in the series with Boophilus microplus [8] and in the series with Boophilus microplus [1] was 100% each time. Besides, the “kill rate in % (efficacy)” value in the series with Ctenocephalides felis was found to be 100%; with Lucilia cuprina larvae, 100%; with Musca domestica adults [9] it was 85%; in the series with Musca domestica adults [4], 100%. Moreover, the logP entry in series [5] is given as “HPLC-MS: logP = 3.58; mass”.
